{"source": "patent US20140193531A1", "about": "“Aqueous extracts of deschampsia antarctica” (Uxmal S.A, priority 2012, published 2014)", "key": {"[1]": {"test_system": "IL-6 secretion in TNFα-stimulated 3T3-L1 adipocytes", "test": "TNFα-stimulated IL-6 secretion in 3T3-L1 adipocytes", "format": "cell-based, Mouse", "details": "data not shown", "description": "Post-differentiation, D6/D7 adipocytes were treated with test material 4 h prior to the addition of TNFα at a final concentration of 10 ng/mL. Following overnight incubation of approximately 18 h, the supernatant media were removed and assayed for IL-6. IL-6 secreted into the medium in response to TNFα stimulation was quantified using the Quantikine® Mouse IL-6 Immunoassay kit Immunoassay kit with no modifications (R&D Systems, Minneapolis, Minn.). Experiments assessing the anti-inflammatory activity of the test samples were repeated a minimum of 2 independent times. For statistical analysis, the effects of test materials IL-6 secretion were normalized, respectively, to the TNFα positive control to generate IL-6 indexes. Differences among the treatments were determined by analysis of variance and student's least significant difference test without correction for multiple comparisons; the nominal 5% probability of a type I error was used. Ninety-five percent CI were computed using the ANOVA error mean square estimate of variance (Excel®, Microsoft, Redmond, Wash.)."}, "[2]": {"test_system": "HaCaT cells", "format": "cell-based, human", "description": "For this assay, 100,000 cells were seeded in a 24-well plate at a total volume of 500 ul in a complete culture medium. After incubating for 24 hours at 37° C. in an atmosphere of 5% CO2, the cells were irradiated with different concentrations of UV light in an irradiation system inside a type 2 biosafety laminar flow hood. The system consisted of 2 florescent tubes, one UVA-emitting 36 W PL-L (320-400 nm) and one UVB-emitting 20 W TL (290-320 nm) (Philips, Eindhoven, the Netherlands). Both tubes were located 5 cm from the bottom of the well to produce homogeneous irradiation intensity. The irradiation intensity was monitored with radiometers for UVB (Solarmeter 6.2 digital UVB radiometer, Solartech Inc., Harrison Township, Mich.) and UVA (Tecpel, CHY-732, Taiwan). The HaCaT cells were irradiated at different time intervals (Table 5) to reach the different accumulative doses of UVA and UVB (Gao et al. 2007). After irradiation with UVA+UVB light, the cells were incubated for 24 hours and the viability of the cells was measured with the MTS assay.\nIn this assay, 100,000 cells were seeded in a 24-well plate. After incubating for 24 hours at 37° C. in an atmosphere of 5% de CO2, the cells were washed with PBS and incubated with AEDA doses of between 4.5 and 0.5 mg/ml previously diluted in PBS. […]"}}, "data": [{"smiles": "C=C[C@@]1(C)CC(=O)[C@]2(O)[C@@]3(C)[C@@H](O)CCC(C)(C)[C@@H]3[C@H](O)[C@H](OC(C)=O)[C@@]2(C)O1", "note": "[Forskolin]", "values": [{"measurement": "increase of IL-6 secretion above the TNFα positive control", "setting": "[1]", "value": "over 100%"}]}, {"smiles": "COc1cc(/C=C/C(=O)O)ccc1O", "note": "[ferulic acid]", "values": [{"measurement": "effect on irradiated keratinocytes at higher doses", "setting": "[2]", "value": "possible photocytotoxic effect"}]}]}
